Measurements reported in paper PMC7216583 (Parasites & Vectors, 2020).
Where a name gives a salt, the structure may show the parent alone. Read-outs that look alike come from different tables or passages of the source.

Test system: Toxoplasma gondii RH-2F tachyzoites
Assay: microbe, parasite or virus in culture
Conditions: 72 h
[1] = read-out: Parasite inhibition (%) mean, preliminary screen, mean
[2] = read-out: Parasite inhibition (%) mean, preliminary screen of compound library, mean
[3] = read-out: Parasite inhibition (%) mean

Compound	inhibition of growth at 5 µM [1] [%]	inhibition of growth at 5 µM [2] [%]	further results
CCCCCCOC(=O)/N=C(/N)c1ccc(NCc2nc3cc(C(=O)N(CCC(=O)OCC)c4ccccn4)ccc3n2C)cc1	1.2		
CC=CC1=C(C(=O)O)N2C(=O)[C@@H](NC(=O)[C@H](N)c3ccc(O)cc3)[C@H]2SC1 (mixture of isomers) [Cefprozil hydrate (Cefzil)]		12.3	
CC1COC2(CCN(c3nc(=O)c4cc(C(F)(F)F)cc([N+](=O)[O-])c4s3)CC2)O1 (racemic) [BTZ043 racemate]	-5.8		
CNCC(O)c1ccc(O)c(O)c1 (racemic) [DL-Adrenaline]			inhibition of growth at 5 µM [3]: 1.5%
Nc1ncnc2c1c(-c1cccc(OCc3ccccc3)c1)cn2C1CC(CN2CCCC2)C1 (stereo in doubt) [NVP-ADW742]	48.9		
NCC(=O)CCC(=O)O [5-Aminolevulinic acid hydrochloride]		20.1	
NC(Cc1c[nH]c2ccc(O)cc12)C(=O)O (centres unmarked) [5-hydroxytryptophan (5-HTP)]		0	
NC[C@H](CC(=O)O)c1ccc(Cl)cc1 [(R)-baclofen]		23.1	
Cc1nc(NC(=O)N2CCC[C@H]2C(N)=O)sc1-c1csc(C(C)(C)C)n1 [A66]		0.9	
COc1ccc(S(=O)(=O)Nc2cccnc2Nc2ccc(O)cc2)cc1 [ABT-751]	22.7		
C[C@]1(c2nc3c(C(N)=O)cccc3[nH]2)CCCN1 [ABT-888 (Veliparib)]	50.5		
C[C@@H](NCCCc1cccc(C(F)(F)F)c1)c1cccc2ccccc12 [AMG-073 HCl (Cinacalcet HCl)]	-0.4		
C[C@@H](NCCCc1cccc(C(F)(F)F)c1)c1cccc2ccccc12 [AMG-073 HCl (Cinacalcet hydrochloride)]		2.4	
CNC(=O)c1ccc(N2C(=S)N(c3cnc(C#N)c(C(F)(F)F)c3)C(=O)C23CCC3)cc1F [ARN-509]		28.7	
O=C(NC[C@H](O)CO)c1ccncc1Nc1ccc(I)cc1F [AS703026 (pimasertib)]	-20.8		
O=C1NC(=O)/C(=C/c2ccc3c(c2)OC(F)(F)O3)S1 [AS-604850]		0.8	
Nc1ncnc2c1ncn2[C@@H]1O[C@@H](COP(=O)(O)OP(=O)(O)OP(=O)(O)O)[C@@H](O)[C@H]1O [ATP (Adenosine-Triphosphate)]		-56.8	
CNC(=O)c1cccc(-c2ccc3c(N4CCOC[C@@H]4C)nc(N4CCOC[C@@H]4C)nc3n2)c1 [AZD2014]		45.5	
Nc1nc2c(ncn2COCCO)c(=O)[nH]1 [Acyclovir (Aciclovir)]		-55.5	
CC(C)(C)C(=O)OCOP(=O)(COCCn1cnc2c(N)ncnc21)OCOC(=O)C(C)(C)C [Adefovir Dipivoxil (Preveon, Hepsera)]	0		
Nc1ncnc2[nH]cnc12 [Adenine HCl]	22.6		
Nc1ncnc2nc[nH]c12 [Adenine sulfate]			inhibition of growth at 5 µM [3]: 11.8%
CNCC(=O)c1ccc(O)c(O)c1 [Adrenalone HCl]		17.8	

Compound	inhibition of growth at 5 µM [1] [%]	inhibition of growth at 5 µM [2] [%]	further results
CN(C)C/C=C/C(=O)Nc1cc2c(Nc3ccc(F)c(Cl)c3)ncnc2cc1O[C@H]1CCOC1 [Afatinib (BIBW2992)]	42.8		
COc1ccc2cccc(CCNC(C)=O)c2c1 [Agomelatine]	64.2		
C=CCc1cc(OC)c(O)c(C(=O)NCCO)c1 [Alibendol]		0.1	
O=c1[nH]cnc2[nH]ncc12 [Allopurinol Sodium (Aloprim)]	-0.7		
CN(C)CCc1c[nH]c2ccc(CS(=O)(=O)N3CCCC3)cc12 [Almotriptan malate (Axert)]	2		
Cn1c(=O)cc(N2CCC[C@@H](N)C2)n(Cc2ccccc2C#N)c1=O [Alogliptin (SYR-322)]		44.1	
CC1(C)[C@@H](O[C@H]2O[C@H](C(=O)O)[C@@H](O)[C@H](O)[C@@H]2O[C@@H]2O[C@H](C(=O)O)[C@@H](O)[C@H](O)[C@H]2O)CC[C@@]2(C)[C@H]3C(=O)C=C4[C@@H]5C[C@@](C)(C(=O)O)CC[C@]5(C)CC[C@@]4(C)[C@]3(C)CC[C@@H]12 [Ammonium Glycyrrhizinate (AMGZ)]		0.1	
CN(C)CCN1C(=O)c2cccc3cc(N)cc(c23)C1=O [Amonafide]	-3.3		
CC1(C)S[C@@H]2[C@H](NC(=O)[C@H](N)c3ccc(O)cc3)C(=O)N2[C@@H]1C(=O)O [Amoxicillin sodium (Amox)]		9.1	
CC(=O)Nc1ccc(OC[C@](C)(O)C(=O)Nc2ccc([N+](=O)[O-])c(C(F)(F)F)c2)cc1 [Andarine (GTX-007)]	-18.7		
COc1ccc(-n2nc(C(N)=O)c3c2C(=O)N(c2ccc(N4CCCCC4=O)cc2)CC3)cc1 [Apixaban]	2		
CCOC(=O)c1c(CSc2ccccc2)n(C)c2cc(Br)c(O)c(CN(C)C)c12 [Arbidol HCl]		2.8	
COC(=O)C1=CCCN(C)C1 [Arecoline]		-9.5	
COc1cc(OC)c(OC)cc1C=O [Asaraldehyde (Asaronaldehyde)]		10.2	
CC(C)(O)[C@H]1CC[C@@](C)([C@@H]2[C@@H](O)C[C@@]3(C)[C@@H]4C[C@H](O[C@@H]5O[C@H](CO)[C@@H](O)[C@H](O)[C@@H]5O)[C@H]5C(C)(C)[C@@H](O[C@@H]6OC[C@@H](O)[C@H](O)[C@H]6O)CC[C@@]56C[C@]46CC[C@]23C)O1 [Astragaloside A]		15.5	
CC(C)c1cc(C(C)C)c(CC(=O)NS(=O)(=O)Oc2c(C(C)C)cccc2C(C)C)c(C(C)C)c1 [Avasimibe (CI-1011)]	5.1		
CC1=C(C(=O)OC(C)C)C(c2cccc([N+](=O)[O-])c2)C(C(=O)OC2CN(C(c3ccccc3)c3ccccc3)C2)=C(N)N1 (centres unmarked) [Azelnidipine]		15.7	
CCOc1nc2cccc(C(=O)OCc3oc(=O)oc3C)c2n1Cc1ccc(-c2ccccc2-c2nc(=O)o[nH]2)cc1 [Azilsartan Medoxomil (TAK-491)]		35.5	
COc1c(OCCCN2CCOCC2)ccc2c1N=C(NC(=O)c1cnc(N)nc1)N1CCN=C21 [BAY80-6946]		40.8	
Cn1c(=O)n(-c2ccc(C(C)(C)C#N)cc2)c2c3cc(-c4cnc5ccccc5c4)ccc3ncc21 [BEZ235 (NVP-BEZ235)]	5.6		
CC[C@@H]1C(=O)N(C)c2cnc(Nc3ccc(C(=O)NC4CCN(C)CC4)cc3OC)nc2N1C1CCCC1 [BI 2536]	0.7		
Cn1c(CNc2ccc(C(=N)N)cc2)nc2cc(C(=O)N(CCC(=O)O)c3ccccn3)ccc21 [BIBR 953 (Dabigatran etexilate, Pradaxa)]		0.3	
C/C(=C\C(=O)Nc1ccccc1C(=O)O)c1ccc2ccccc2c1 [BIBR 1532]	0.4		

Compound	inhibition of growth at 5 µM [1] [%]	inhibition of growth at 5 µM [2] [%]	further results
CCCCCCOC(=O)/N=C(/N)c1ccc(NCc2nc3cc(C(=O)N(CCC(=O)OCC)c4ccccn4)ccc3n2C)cc1 [BIBR-1048 (Dabigatran)]		8.4	
Cc1ccc(-n2nc(C(C)(C)C)cc2NC(=O)Nc2ccc(OCCN3CCOCC3)c3ccccc23)cc1 [BIRB 796 (Doramapimod)]	8.9		
COc1cc2nc(N3CCCN(C)CC3)nc(NC3CCN(Cc4ccccc4)CC3)c2cc1OC [BIX01294]		21.8	
Cc1nc(NC(=O)N2CCC[C@H]2C(N)=O)sc1-c1ccnc(C(C)(C)C(F)(F)F)c1 [BYL719]		47.5	
CCN(CCO)CCCOc1ccc2c(Nc3cc(CC(=O)Nc4cccc(F)c4)n[nH]3)ncnc2c1 [Barasertib (AZD1152-HQPA)]	54.4		
O=C(/C=C/c1cccc(S(=O)(=O)Nc2ccccc2)c1)NO [Belinostat (PXD101)]	65.8		
N[C@@H]1CCCCN(c2c(F)cc3c(=O)c(C(=O)O)cn(C4CC4)c3c2Cl)C1 [Besifloxacin HCl (Besivance)]		39.1	
C[C@H]1C[C@H]2[C@@H]3CCC4=CC(=O)C=C[C@]4(C)[C@@H]3C(=O)C[C@]2(C)[C@]1(O)C(=O)CO [Betapar (Meprednisone)]		0.9	
CC(C)NCC(O)COc1ccc(CCOCC2CC2)cc1 (centres unmarked) [Betaxolol (Betoptic)]			inhibition of growth at 5 µM [3]: 9.5%
CCNC(=O)CCC/C=C\C[C@@H]1[C@@H](/C=C/[C@@H](O)CCc2ccccc2)[C@H](O)C[C@@H]1O [Bimatoprost]		9	
Cc1cc2c(F)c(Oc3ncnn4cc(OC[C@@H](C)O)c(C)c34)ccc2[nH]1 [Brivanib (BMS-540215)]			inhibition of growth at 5 µM [3]: 49.8%
CN(Cc1ccc(C(C)(C)C)cc1)Cc1cccc2ccccc12 [Butenafine HCl]		7.5	
CC[C@H](Nc1ncnc2[nH]cnc12)c1nc2cccc(F)c2c(=O)n1-c1ccccc1 [CAL-101 (GS-1101)]		47.8	
CCNC(=O)[C@H]1O[C@@H](n2cnc3c(N)nc(NCCc4ccc(CCC(=O)O)cc4)nc32)[C@@H](O)[C@@H]1O [CGS 21680 HCl]	0.9		
CCc1cc2c(cc1N1CCC(N3CCOCC3)CC1)C(C)(C)c1[nH]c3cc(C#N)ccc3c1C2=O [CH5424802]		46.1	
O=C(NOCC1CC1)c1ccc(F)c(F)c1Nc1ccc(I)cc1Cl [CI-1040 (PD184352)]	0.4		
COc1cc2ncnc(-n3nc(-c4ccccn4)nc3N)c2cc1OC [CP-466722]		2.5	
O=C(O)CCCCC(CCSCc1ccccc1)SCc1ccccc1 (centres unmarked) [CPI-613]		31.1	
C#Cc1cccc(Nc2ncnc3cc(OC)c(OCCCCCCC(=O)NO)cc23)c1 [CUDC-101]			inhibition of growth at 5 µM [3]: 46.2%
O=C(O)c1ccc2c(c1)nc(Nc1cccc(Cl)c1)c1ccncc12 [CX-4945 (Silmitasertib)]		1.5	
CO[C@H]1C(=O)[C@@]2(C)[C@H]([C@@H](OC(=O)c3ccccc3)[C@@]3(O)C[C@H](OC(=O)[C@H](O)[C@@H](NC(=O)OC(C)(C)C)c4ccccc4)C(C)=C1C3(C)C)[C@]1(OC(C)=O)CO[C@@H]1C[C@H]2OC [Cabazitaxel (Jevtana)]		2.3	
Nc1nc(=O)c2c([nH]1)NC[C@H](CNc1ccc(C(=O)N[C@@H](CCC(=O)O)C(=O)O)cc1)N2C=O [Calcium levofolinate (Calcium Folinate)]		0.1	
